Measurements published in paper PMC8997913, “Lichen Secondary Metabolites Inhibit the Wnt/β-Catenin Pathway in Glioblastoma Cells and Improve the Anticancer Effects of Temozolomide” (Cells, 2022).

Assays:
[1] = test system: MDA-MB-231 breast cancer cells; parameters: method as in PMID 32096436; conditions: MDA-MB-231, ref [31]; read-out: IC50 concentration; cited from earlier work
[2] = test system: MCF-7 breast cancer cells; parameters: method as in PMID 32096436; conditions: MCF-7, ref [31]; read-out: IC50 concentration; cited from earlier work
[3] = test system: NIH3T3 cells; parameters: method as in PMID 35190352; conditions: NIH3T3, ref [30]; cited from earlier work
[4] = test system: A-172 cells; conditions: taken from the literature, ref [5]; read-out: IC50 [uM] ± SEM A-172; cited from earlier work
[5] = test system: T98G cells; conditions: taken from the literature, ref [5]; read-out: IC50 [uM] ± SEM T98G; cited from earlier work
[6] = test system: T98G cells; test: ROS (superoxide) generation, flow cytometry, T98G; assay type: cell-based, human; conditions: 48 h
Method: Based on the MTT test, the lichen secondary metabolite concentrations allowing the survival of more than 70% of cells were chosen for the subsequent experiments. The compounds were added as follows: A-172 cells—atranorin 25 µM, caperatic acid 50 µM, physodic acid 25 µM, squamatic acid 25 µM, salazinic acid 50 µM, and lecanoric acid 100 µM; T98G cells—atranorin 50 µM, caperatic acid 100 µM, physodic acid 25 µM, squamatic acid 50 µM, salazinic acid 100 µM, and lecanoric acid 100 µM; U-138 MG cells—atranorin 25 µM, caperatic acid 50 µM, physodic acid 25 µM, squamatic acid 50 µM, salazinic acid 50 µM, and lecanoric acid 100 µM. […]
The intracellular detection of superoxide radicals was detected by flow cytometric analysis after the staining with dihydroethidium, using The Muse® Oxidative Stress Kit (Merck, Darmstadt, Germany). Briefly, 100,000 cells per well were seeded on 6-well plates and after a 24 h incubation they were treated with the analyzed lichen secondary metabolites in the concentrations allowing >70% of cell survival; cells treated with DMSO were used as the negative control. […] The obtained data were evaluated using Muse® Analysis Software ver. […]

## COC(=O)c1c(C)cc(OC(=O)c2c(C)cc(O)c(C=O)c2O)c(C)c1O [Atranorin]
[1]
  IC50: 5.36 ± 0.85 µM
[2]
  IC50: 7.55 ± 1.2 µM

## Cc1cc(OC(=O)c2c(C)cc(O)cc2O)cc(O)c1C(=O)O [Lecanoric acid]
[3]
  cell cycle distribution: cell cycle arrest in the G2 phase

## Cc1cc(O)c(C=O)c2c1C(=O)Oc1c(CO)c(O)c3c(c1O2)C(O)OC3=O (stereo not drawn) [Salazinic acid]
[4]
  IC50: > 100 µM
[5]
  IC50: > 100 µM

## COc1cc(C)c(C(=O)Oc2cc(C)c(C(=O)O)c(O)c2C)c(O)c1C(=O)O [Squamatic acid]
[6]
  oxidative stress (superoxide) induction: induce oxidative stress
